What was measured:
Assay in all cases: microbe, parasite or virus in culture
Assay type in all cases: cell-based
SARS-CoV-2 WA-1 (P1) [1] = details: Severe acute respiratory syndrome coronavirus 2, A549-ACE2
SARS-CoV-2 WA-1 strain = details: Severe acute respiratory syndrome coronavirus 2
SARS-CoV-2 WA-1 (P1) [2] = details: Severe acute respiratory syndrome coronavirus 2

Question: For `CC(C)(C)[C@H](NC(=O)C(F)(F)F)C(=O)N1C[C@H]2[C@@H]([C@H]1C(=O)N[C@H](C#N)C[C@@H]1CCNC1=O)C2(C)C` [Nirmatrelvir], which EC50 (SARS-CoV-2 WA-1 (P1) [1]) is on record?
Answer: 0.054 µM

Question: What about the EC50 (SARS-CoV-2 WA-1 strain) of the same molecule?
Answer: 0.15 µM

Question: And the EC90 (SARS-CoV-2 WA-1 strain)?
Answer: 0.37 µM

Question: And the EC50 (SARS-CoV-2 WA-1 (P1) [2])?
Answer: 0.0348 µM

Question: Which EC50 (SARS-CoV-2 WA-1 (P1) [1]) does the source give for `CCC(CC)COC(=O)[C@H](C)N[P@](=O)(OC[C@H]1O[C@@](C#N)(c2ccc3c(N)ncnn23)[C@H](O)[C@@H]1O)Oc1ccccc1` [Remdesivir] here?
Answer: 0.075 µM

Question: And the EC50 (SARS-CoV-2 WA-1 (P1) [2])?
Answer: 0.0291 µM

— paper PMC11268423 (Science Advances, 2024)
